Source: article PMC3818998 (Microbial Biotechnology, 2011)
Where two headings read alike, the source gives them in different places.

T1: GalR (Bifidobacterium breve UCC2003, UniProt F9Y1U7 1-351)
T1 sequence: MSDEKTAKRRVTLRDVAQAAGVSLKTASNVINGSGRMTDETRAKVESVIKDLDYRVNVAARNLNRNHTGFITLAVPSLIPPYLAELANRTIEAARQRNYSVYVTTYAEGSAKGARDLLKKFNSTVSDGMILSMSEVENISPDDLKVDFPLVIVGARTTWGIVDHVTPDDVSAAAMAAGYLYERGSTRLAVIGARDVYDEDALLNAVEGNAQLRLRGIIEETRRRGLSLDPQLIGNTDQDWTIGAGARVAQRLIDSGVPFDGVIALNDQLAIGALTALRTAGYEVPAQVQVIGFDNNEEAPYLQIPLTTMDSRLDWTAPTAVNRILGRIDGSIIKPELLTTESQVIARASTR

B1: galCIR1 (dsDNA)
DNA 1: TTAGGTATTGGTACACGGGTGTACCAAAGAAAACA
DNA 2: TGTTTTCTTTGGTACACCCGTGTACCAATACCTAA
B2: galCIR2 (dsDNA)
DNA 1: TGACAAATTGGTACACAGGTGTATCATCTTAGGTA
DNA 2: TACCTAAGATGATACACCTGTGTACCAATTTGTCA

How the values were obtained:
GalG = GalG (Bifidobacterium breve, UniProt F9Y1U6); assay: HPTLC of hydrolysis products; format: biochemical
GalR = molecular target: T1, GalR; assay: EMSA

Row | Molecule | binding result (GalR) | other results
1 | OC[C@H]1O[C@@H](O[C@@H]2[C@H](O)[C@@H](O)C(O)O[C@@H]2CO)[C@H](O)[C@@H](O)[C@H]1O (stereo partly shown) [galactobiose] | – | HPTLC of hydrolysis products (GalG): The hydrolysis products of galactobiose and lactose following incubation with GalG
2 | OC[C@H]1O[C@@H](O[C@@H]2[C@H](O)[C@@H](O)[C@H](O[C@@H]3[C@H](O)[C@@H](O)C(O)O[C@@H]3CO)O[C@@H]2CO)[C@H](O)[C@@H](O)[C@H]1O (stereo partly shown) [galactotriose] | – | HPTLC of hydrolysis products (GalG; galactotriose generated in situ from potato galactan by GalA or GalAT): Upon addition of GalG to the reaction mix the galactotriose is further hydrolysed
3 | B1 | binds | –
4 | B2 | binds | –
